From US20240300944A1, “NOVEL UREA DERIVATIVE COMPOUND AS RON INHIBITOR” (LG CHEM, LTD., priority 2021, published 2024)

Assays:
[1] = target: RON (Homo sapiens, UniProt Q04912); assay: Inhibitory activity against RON, TR-FRET kinase assay; format: biochemical; settings: RON enzyme
Protocol: In order to measure the inhibitory activity of each of the compounds of Examples against RON, the IC50 of each of the compounds was measured using a Time-Resolved Fluorescence Energy Transfer Chemistry (TR-FRET).
(§1) Specifically, the compound was prepared to a concentration of 1 mM with 100% DMSO and was diluted 10 times in a stepwise manner through 3-fold dilution. 2 ul of the compound diluted in a stepwise manner was added to a 96-well-plate containing 48 ul of a 1× kinase reaction buffer (50 mM HEPES (pH 7.4), 0.01% Tween-20, 5 mM DTT, 0.5 mM Na3VO4, 2 mM EGTA, 10 mM MgCl2).
The RON protein was diluted to a concentration of 49.3 nM with an RON storage buffer (50 mM Tris-HCl (pH 7.5), 150 mM NaCl, 0.5 mM EDTA, 0.02% Triton X-100), and then diluted again to a concentration of 0.4 nM with a 1× kinase reaction buffer. As a substrate cocktail, a RON-specific substrate mixture (40 uM ULight-labeled Poly GT, 100 nM ATP) at a concentration 2 times the final reaction concentration.
Thereafter, a 384-well-plate was prepared, and 2.5 ul of each of the diluted compounds of Examples was added to a corresponding well of experimental group wells, and 2.5 ul of a 4% DMSO solution was dispensed into high control wells and low control wells.
(§2) Thereafter, 2.5 μL of 0.4 nM RON was dispensed into the high control wells and the experimental group wells, and 2.5 μL of a 1× kinase reaction buffer was added to the low control wells, and the RON and the reaction buffer were centrifuged at room temperature for 40 seconds at 1000 RPM, and then incubated at room temperature for 20 to 30 minutes. Then, 5 μL of a substrate cocktail (2×) was dispensed into all wells, centrifuged at room temperature for 40 seconds at 1000 RPM, and then incubated at room temperature for 60 minutes. Thereafter, 5 μL of 30 mM EDTA was added to all wells to terminate the reaction, and then incubated again at room temperature for 5 minutes. Thereafter, 5 μL of a 4× phosphotyrosine antibody (Perkin Elmer) containing europium was added to all wells, and then incubated at room temperature for 60 minutes. After the incubation, the 384-well-plate was read with a Vison plate reader. At this time, the excitation wavelength was 340 nm, and the emission wavelength was 620 nm and 665 nm. The IC50 value of the compound of each Example was derived using the GraphPd Prism7 program.

[2] = target: cMET (Homo sapiens, UniProt P08581); assay: Inhibitory activity against MET (cMET), TR-FRET kinase assay; format: biochemical; settings: cMET enzyme
Protocol: In addition, in order to measure the enzyme activity inhibition for cMET, the evaluation was performed in the same manner as the enzyme activity inhibition measurement experiment for the RON.
as §1, with “7.4), 0.05% BSA, 0.005%” for “7.4), 0.01%”, “Tween-20, 1” for “Tween-20, 5”, “mM MnCl2, 20” for “mM Na3VO4, 2 mM EGTA, 10”
The cMET protein was diluted to a concentration of 263 nM with a cMET storage buffer (50 mM Tris-HCl (pH 7.5), 150 mM NaCl, 0.05% Brij35, 1 mM DTT, 10% Glycerol), and then diluted again to a concentration of 2 nM with a 1× kinase reaction buffer. As a substrate cocktail, a MET-specific substrate mixture (5 uM TK peptide, […]) at a concentration 2 times the final reaction concentration.
Thereafter, a 384-well-plate was prepared, and 2.5 μl of each of the diluted compounds of Examples was added to a corresponding well of experimental group wells, and 2.5 μl of a 4% DMSO solution was dispensed into high control wells and low control wells.
as §2, with “of 2” for “of 0.4”, “nM cMET” for “nM RON”, “of 90” for “of 30”

Sequence of RON (Q04912 25-1400, species assumed): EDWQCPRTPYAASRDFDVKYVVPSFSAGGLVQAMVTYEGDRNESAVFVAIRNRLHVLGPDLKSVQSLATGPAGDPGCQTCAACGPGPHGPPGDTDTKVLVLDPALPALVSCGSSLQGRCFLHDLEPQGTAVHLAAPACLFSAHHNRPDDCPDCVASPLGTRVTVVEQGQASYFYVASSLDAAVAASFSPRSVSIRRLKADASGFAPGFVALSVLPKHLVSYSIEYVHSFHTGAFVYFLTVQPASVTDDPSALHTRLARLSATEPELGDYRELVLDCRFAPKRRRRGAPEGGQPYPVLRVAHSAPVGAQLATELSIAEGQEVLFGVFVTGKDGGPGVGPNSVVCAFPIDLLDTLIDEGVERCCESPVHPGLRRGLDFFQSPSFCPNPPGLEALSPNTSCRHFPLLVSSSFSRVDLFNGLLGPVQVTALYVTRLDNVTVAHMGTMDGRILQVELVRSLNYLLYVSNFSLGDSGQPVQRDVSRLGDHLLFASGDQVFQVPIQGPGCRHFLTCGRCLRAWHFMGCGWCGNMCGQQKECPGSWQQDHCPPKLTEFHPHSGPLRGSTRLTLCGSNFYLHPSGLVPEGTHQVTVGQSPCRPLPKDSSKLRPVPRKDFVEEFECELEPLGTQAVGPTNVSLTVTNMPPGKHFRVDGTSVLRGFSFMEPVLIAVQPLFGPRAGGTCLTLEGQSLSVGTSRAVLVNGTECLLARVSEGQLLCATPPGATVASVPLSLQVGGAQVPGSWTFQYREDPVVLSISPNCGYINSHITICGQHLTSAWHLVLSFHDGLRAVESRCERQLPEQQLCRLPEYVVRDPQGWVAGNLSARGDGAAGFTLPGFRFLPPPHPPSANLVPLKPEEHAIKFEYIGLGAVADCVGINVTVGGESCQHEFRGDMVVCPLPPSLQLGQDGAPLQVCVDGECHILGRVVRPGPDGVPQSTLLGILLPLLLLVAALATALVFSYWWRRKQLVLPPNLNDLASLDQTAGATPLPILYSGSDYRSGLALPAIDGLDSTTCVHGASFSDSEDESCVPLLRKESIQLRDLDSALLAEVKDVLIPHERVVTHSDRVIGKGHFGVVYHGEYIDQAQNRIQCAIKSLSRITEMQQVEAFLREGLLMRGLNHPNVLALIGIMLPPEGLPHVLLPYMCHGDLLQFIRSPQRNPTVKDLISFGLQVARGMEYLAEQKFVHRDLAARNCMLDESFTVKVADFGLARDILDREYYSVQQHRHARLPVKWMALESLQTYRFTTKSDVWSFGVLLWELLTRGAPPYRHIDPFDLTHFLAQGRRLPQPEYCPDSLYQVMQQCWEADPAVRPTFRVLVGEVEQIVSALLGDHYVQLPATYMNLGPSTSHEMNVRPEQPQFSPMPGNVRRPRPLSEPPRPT
Sequence of cMET (P08581 25-1390): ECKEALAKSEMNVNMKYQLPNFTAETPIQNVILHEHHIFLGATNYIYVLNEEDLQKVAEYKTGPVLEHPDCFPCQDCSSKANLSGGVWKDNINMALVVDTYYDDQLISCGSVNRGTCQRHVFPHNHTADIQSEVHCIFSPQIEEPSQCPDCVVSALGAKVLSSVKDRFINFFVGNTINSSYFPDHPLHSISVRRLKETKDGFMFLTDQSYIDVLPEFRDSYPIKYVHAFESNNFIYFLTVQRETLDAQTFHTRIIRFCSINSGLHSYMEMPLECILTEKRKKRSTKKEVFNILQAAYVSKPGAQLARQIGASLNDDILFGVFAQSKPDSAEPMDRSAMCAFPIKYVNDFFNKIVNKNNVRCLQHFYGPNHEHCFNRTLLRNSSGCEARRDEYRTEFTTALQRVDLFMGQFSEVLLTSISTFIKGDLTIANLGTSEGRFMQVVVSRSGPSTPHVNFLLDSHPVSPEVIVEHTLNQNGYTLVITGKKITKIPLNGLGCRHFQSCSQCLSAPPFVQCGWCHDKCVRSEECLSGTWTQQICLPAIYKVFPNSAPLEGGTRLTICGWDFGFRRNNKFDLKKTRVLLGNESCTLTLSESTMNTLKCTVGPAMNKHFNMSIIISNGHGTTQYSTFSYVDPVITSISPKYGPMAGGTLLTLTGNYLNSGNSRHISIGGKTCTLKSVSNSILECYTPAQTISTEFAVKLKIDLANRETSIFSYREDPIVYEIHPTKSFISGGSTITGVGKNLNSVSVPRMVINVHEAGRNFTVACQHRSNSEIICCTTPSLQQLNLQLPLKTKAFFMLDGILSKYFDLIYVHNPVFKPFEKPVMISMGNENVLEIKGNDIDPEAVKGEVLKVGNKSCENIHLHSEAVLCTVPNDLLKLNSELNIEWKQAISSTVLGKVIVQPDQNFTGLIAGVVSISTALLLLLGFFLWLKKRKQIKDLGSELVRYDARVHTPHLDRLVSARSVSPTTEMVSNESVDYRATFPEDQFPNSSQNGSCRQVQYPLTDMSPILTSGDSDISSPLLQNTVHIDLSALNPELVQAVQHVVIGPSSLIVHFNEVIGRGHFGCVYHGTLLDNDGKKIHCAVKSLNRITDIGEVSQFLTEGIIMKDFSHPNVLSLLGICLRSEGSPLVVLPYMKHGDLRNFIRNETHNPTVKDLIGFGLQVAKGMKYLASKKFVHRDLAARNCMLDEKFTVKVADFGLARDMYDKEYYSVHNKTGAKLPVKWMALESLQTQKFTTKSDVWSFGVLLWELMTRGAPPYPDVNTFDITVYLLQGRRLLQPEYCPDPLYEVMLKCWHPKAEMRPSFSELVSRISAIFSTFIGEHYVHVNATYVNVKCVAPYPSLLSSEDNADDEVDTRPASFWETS

Structure (SMILES)	IC50 [1] [nM]	IC50 [2] [nM]
CC(C)n1c(=O)[nH]c2nccc(Oc3ccc(NC(=O)c4cnn(C5CCOCC5)c4C(F)(F)F)cc3F)c21 [Example 29, N-(3-fluoro-4-((1-isopropyl-2-oxo-2,3-dihydro-1H-imidazo[4,5-b]pyridine-7-yl)oxy)phenyl)-1-(tetrahydro-2H-pyran-4-yl)-5-(trifluoromethyl)-1H-pyrazole-4-carboxamide]	50 to 500	50 to 500
CC(C)n1c(=O)[nH]c2nccc(Oc3ccc(NC(=O)c4ccc(Br)cc4C(F)(F)F)cc3F)c21 [Example 25, 4-bromo-N-(3-fluoro-4-((1-isopropyl-2-oxo-2,3-dihydro-1H-imidazo[4,5-b]pyridine-7-yl)oxy)phenyl)-2-(trifluoromethyl)benzamide]	50 to 500	> 5000
O=C(Nc1ccc(Oc2ccnc3[nH]c(=O)n(C4CCOCC4)c23)c(F)c1)c1cnn(-c2ccccc2)c1C(F)(F)F [Example 37, N-(3-fluoro-4-((2-oxo-1-(tetrahydro-2H-pyran-4-yl)-2,3-dihydro-1H-imidazo[4,5-b]pyridine-7-yl)oxy)phenyl)-1-phenyl-5-(trifluoromethyl)-1H-pyrazole-4-carboxamide]	50 to 500	500 to 5000
Cc1nn(-c2ccccc2)c(C)c1C(=O)Nc1ccc(Oc2ccnc3[nH]c(=O)[nH]c23)c(F)c1 [Example 12, N-(3-fluoro-4-((2-oxo-2,3-dihydro-1H-imidazo[4,5-b]pyridine-7-yl)oxy)phenyl)-3,5-dimethyl-1-phenyl-1H-pyrazole-4-carboxamide]	50 to 500	> 5000
Cc1c(C(=O)Nc2ccc(Oc3ccnc4[nH]c(=O)n(C(C)C)c34)c(F)c2)nnn1-c1ccccc1 [Example 42, N-(3-fluoro-4-((1-isopropyl-2-oxo-2,3-dihydro-1H-imidazo[4,5-b]pyridine-7-yl)oxy)phenyl)-5-methyl-1-phenyl-1H-1,2,3-triazole-4-carboxamide]	50 to 500	> 5000
CC(C)n1c(=O)[nH]c2nccc(Oc3ccc(NC(=O)c4cnn(C(C)(C)C)c4C(F)(F)F)cc3F)c21 [Example 30, 1-(tert-butyl)-N-(3-fluoro-4-((1-isopropyl-2-oxo-2,3-dihydro-1H-imidazo[4,5-b]pyridine-7-yl)oxy)phenyl)-5-(trifluoromethyl)-1H-pyrazole-4-carboxamide]	50 to 500	500 to 5000
Cc1ccc(-n2ncc(C(=O)Nc3ccc(Oc4ccnc5[nH]c(=O)n(C(C)C)c45)c(F)c3)c2C(F)(F)F)cc1 [Example 17, N-(3-fluoro-4-((1-isopropyl-2-oxo-2,3-dihydro-1H-imidazo[4,5-b]pyridine-7-yl)oxy)phenyl)-1-(p-tolyl)-5-(trifluoromethyl)-1H-pyrazole-4-carboxamide]	50 to 500	> 5000
Cc1c(C(=O)Nc2ccc(Oc3ccnc4[nH]c(=O)n(C(C)C)c34)c(F)c2)cnn1-c1ccccc1 [Example 14, N-(3-fluoro-4-((1-isopropyl-2-oxo-2,3-dihydro-1H-imidazo[4,5-b]pyridine-7-yl)oxy)phenyl)-5-methyl-1-phenyl-1H-pyrazole-4-carboxamide]	< 50	500 to 5000

The next lines start with the values.

IC50 [1] [nM]	IC50 [2] [nM]	Structure (SMILES)
< 50	500 to 5000	CC(C)n1c(=O)[nH]c2nccc(Oc3ccc(NC(=O)c4cnn(-c5ccccc5)c4C(F)(F)F)cc3F)c21 [Example 7, N-(3-fluoro-4-((1-isopropyl-2-oxo-2,3-dihydro-1H-imidazo[4,5-b]pyridine-7-yl)oxy)phenyl)-1-phenyl-5-(trifluoromethyl)-1H-pyrazole-4-carboxamide]
< 50	500 to 5000	CC(C)n1c(=O)[nH]c2nccc(Oc3ccc(NC(=O)c4cnn(C5CCCCCC5)c4C(F)(F)F)cc3F)c21 [Example 31, 1-cycloheptyl-N-(3-fluoro-4-((1-isopropyl-2-oxo-2,3-dihydro-1H-imidazo[4,5-b]pyridine-7-yl)oxy)phenyl)-5-(trifluoromethyl)-1H-pyrazole-4-carboxamide]
< 50	> 5000	O=C(Nc1ccc(Oc2ccnc3[nH]c(=O)[nH]c23)c(F)c1)c1cnn(-c2ccccc2)c1C(F)(F)F [Example 2, N-(3-fluoro-4-((2-oxo-2,3-dihydro-1H-imidazo[4,5-b]pyridine-7-yl)oxy)phenyl)-1-phenyl-5-(trifluoromethyl)-1H-pyrazole-4-carboxamide]
< 50	> 5000	CCn1c(=O)[nH]c2nccc(Oc3ccc(NC(=O)c4ncn(-c5ccccc5)c4C(F)(F)F)cc3F)c21 [Example 3, N-(4-((1-ethyl-2-oxo-2,3-dihydro-1H-imidazo[4,5-b]pyridine-7-yl)oxy)-3-fluorophenyl)-1-phenyl-5-(trifluoromethyl)-1H-imidazole-4-carboxamide]
< 50	50 to 500	Cc1nn(-c2ccccc2)c(C)c1C(=O)Nc1ccc(Oc2ccnc3[nH]c(=O)n(C(C)C)c23)c(F)c1 [Example 13, N-(3-fluoro-4-((1-isopropyl-2-oxo-2,3-dihydro-1H-imidazo[4,5-b]pyridine-7-yl)oxy)phenyl)-3,5-dimethyl-1-phenyl-1H-pyrazole-4-carboxamide]
< 50	500 to 5000	CC(C)n1c(=O)[nH]c2nccc(Oc3ccc(NC(=O)c4cnn(-c5ccccc5F)c4C(F)(F)F)cc3F)c21 [Example 34, N-(3-fluoro-4-((1-isopropyl-2-oxo-2,3-dihydro-1H-imidazo[4,5-b]pyridine-7-yl)oxy)phenyl)-1-(2-fluorophenyl)-5-(trifluoromethyl)-1H-pyrazole-4-carboxamide]
< 50	500 to 5000	CC(C)n1c(=O)[nH]c2nccc(Oc3ccc(NC(=O)c4cnn(C5CCCCC5)c4C(F)(F)F)cc3F)c21 [Example 28, 1-cyclohexyl-N-(3-fluoro-4-((1-isopropyl-2-oxo-2,3-dihydro-1H-imidazo[4,5-b]pyridine-7-yl)oxy)phenyl)-5-(trifluoromethyl)-1H-pyrazole-4-carboxamide]
< 50	> 5000	Cn1c(=O)[nH]c2nccc(Oc3ccc(NC(=O)c4ncn(-c5ccccc5)c4C(F)(F)F)cc3F)c21 [Example 5, N-(3-fluoro-4-((1-methyl-2-oxo-2,3-dihydro-1H-imidazo[4,5-b]pyridine-7-yl)oxy)phenyl)-1-phenyl-5-(trifluoromethyl)-1H-imidazole-4-carboxamide]
< 50	> 5000	CN1CCC(n2c(=O)[nH]c3nccc(Oc4ccc(NC(=O)c5cnn(-c6ccccc6)c5C(F)(F)F)cc4F)c32)CC1 [Example 39, N-(3-fluoro-4-((1-(1-methylpiperidine-4-yl)-2-oxo-2,3-dihydro-1H-imidazo[4,5-b]pyridine-7-yl)oxy)phenyl)-1-phenyl-5-(trifluoromethyl)-1H-pyrazole-4-carboxamide]
